According to PubChem BioAssay AID330 (DTP/NCI, 2004):
Values joined by “and” are separate entries in the source; they are usually repeats but may differ in a detail not shown here. Identical values can stand only once. Toxic doses and inconclusive results are not listed.

Test system: P388 leukemia ip, CD2F1 mice, survival T/C
Assay: NCI In Vivo Anticancer Drug Screen. Data for tumor model P388 Leukemia (intraperitoneal) in CD2F1 (CDF1) mice
Settings: endpoint: median survival time, higher = longer survival
In short: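 Mice carrying the transplanted tumor received test compound or vehicle. Survival was recorded in each group, and the value is the treated-group measurement divided by that of the vehicle-treated control group.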

[1] = dose: 50.0 mg/kg/injection, schedule: Q01DX009 (ip), vehicle: saline
[2] = dose: 100.0 mg/kg/injection, schedule: Q01DX009 (ip), vehicle: saline
[3] = dose: 200.0 mg/kg/injection, schedule: Q01DX009 (ip), vehicle: saline
[4] = dose: 60.0 mg/kg/injection, schedule: Q01DX005 (ip), vehicle: Klucel (hydroxypropylcellulose) (HPC)
[5] = dose: 120.0 mg/kg/injection, schedule: Q01DX005 (ip), vehicle: Klucel (hydroxypropylcellulose) (HPC)
[6] = dose: 240.0 mg/kg/injection, schedule: Q01DX005 (ip), vehicle: Klucel (hydroxypropylcellulose) (HPC)
[7] = dose: 60.0 mg/kg/injection, schedule: Q01DX005 (ip), vehicle: saline with Tween-80
[8] = dose: 120.0 mg/kg/injection, schedule: Q01DX005 (ip), vehicle: saline with Tween-80
[9] = dose: 240.0 mg/kg/injection, schedule: Q01DX005 (ip), vehicle: saline with Tween-80
[10] = dose: 50.0 mg/kg/injection, schedule: Q01DX009 (ip), vehicle: saline with Tween-80
[11] = dose: 100.0 mg/kg/injection, schedule: Q01DX009 (ip), vehicle: saline with Tween-80
[12] = dose: 200.0 mg/kg/injection, schedule: Q01DX009 (ip), vehicle: saline with Tween-80
[13] = dose: 50.0 mg/kg/injection, schedule: Q01DX009 (ip), vehicle: Klucel (hydroxypropylcellulose) (HPC)
[14] = dose: 100.0 mg/kg/injection, schedule: Q01DX009 (ip), vehicle: Klucel (hydroxypropylcellulose) (HPC)
[15] = dose: 200.0 mg/kg/injection, schedule: Q01DX009 (ip), vehicle: Klucel (hydroxypropylcellulose) (HPC)
[16] = dose: 15.0 mg/kg/injection, schedule: Q01DX005 (ip), vehicle: saline with Tween-80
[17] = dose: 30.0 mg/kg/injection, schedule: Q01DX005 (ip), vehicle: saline with Tween-80
[18] = dose: 25.0 mg/kg/injection, schedule: Q01DX009 (ip), vehicle: other
[19] = dose: 50.0 mg/kg/injection, schedule: Q01DX009 (ip), vehicle: other
[20] = dose: 100.0 mg/kg/injection, schedule: Q01DX009 (ip), vehicle: other
[21] = dose: 25.0 mg/kg/injection, schedule: Q01DX009 (ip), vehicle: saline

Compound: C=C(CO)C(=O)OC1CC(=C)C2CC(O)C(C)C2C2OC(=O)C(=C)C12 (centres undefined)
- T/C (dose: 0.75 mg/kg/injection, schedule: Q01DX009 (ip), vehicle: Klucel (hydroxypropylcellulose) (HPC)): 100 % of control and 114 % of control
- T/C (dose: 1.5 mg/kg/injection, schedule: Q01DX009 (ip), vehicle: Klucel (hydroxypropylcellulose) (HPC)): 104 % of control and 91 % of control
- T/C (dose: 3.0 mg/kg/injection, schedule: Q01DX009 (ip), vehicle: Klucel (hydroxypropylcellulose) (HPC)): 98 % of control and 97 % of control
- T/C (dose: 6.0 mg/kg/injection, schedule: Q01DX009 (ip), vehicle: Klucel (hydroxypropylcellulose) (HPC)): 102 % of control and 107 % of control and 112 % of control
- T/C (dose: 12.0 mg/kg/injection, schedule: Q01DX009 (ip), vehicle: Klucel (hydroxypropylcellulose) (HPC)): 103 % of control
- T/C (dose: 24.0 mg/kg/injection, schedule: Q01DX009 (ip), vehicle: Klucel (hydroxypropylcellulose) (HPC)): 98 % of control

Compound: CC1N[P+]2(OC1=O)Oc1ccccc1N2C (centres undefined)
- T/C (dose: 87.5 mg/kg/injection, schedule: Q04DX002 (ip), vehicle: Klucel (hydroxypropylcellulose) (HPC)): 102 % of control
- T/C (dose: 175.0 mg/kg/injection, schedule: Q04DX002 (ip), vehicle: Klucel (hydroxypropylcellulose) (HPC)): 100 % of control
- T/C (dose: 350.0 mg/kg/injection, schedule: Q04DX002 (ip), vehicle: Klucel (hydroxypropylcellulose) (HPC)): 100 % of control

Compound: CNC(=O)N(Cl)c1ccc(Cl)cc1
- T/C [1]: 98 % of control
- T/C [2]: 96 % of control
- T/C [3]: 97 % of control

Compound: OCCCC(=S)NCCNC(=S)CCCO
- T/C [4]: 101 % of control
- T/C [5]: 92 % of control
- T/C [6]: 101 % of control

Compound: Clc1ccc(-c2cc3cc4c(cc3[nH]2)Oc2ccccc2O4)cc1
- T/C (dose: 17.5 mg/kg/injection, schedule: Q01DX009 (ip), vehicle: Klucel (hydroxypropylcellulose) (HPC)): 107 % of control
- T/C (dose: 35.0 mg/kg/injection, schedule: Q01DX009 (ip), vehicle: Klucel (hydroxypropylcellulose) (HPC)): 103 % of control
- T/C (dose: 70.0 mg/kg/injection, schedule: Q01DX009 (ip), vehicle: Klucel (hydroxypropylcellulose) (HPC)): 103 % of control

Compound: Cc1ccc(NC(=O)CCCC(=O)C(C#N)c2ccccc2C)cc1C (centres undefined)
- T/C [7]: 113 % of control
- T/C [8]: 103 % of control
- T/C [9]: 102 % of control

Compound: C=CC(=O)C(C(=O)OCC)=P(c1ccccc1)(c1ccccc1)c1ccccc1
- T/C [4]: 98 % of control
- T/C [5]: 97 % of control
- T/C [6]: 101 % of control

Compound: O=C1CCCCC=C1Cl
- T/C [1]: 96 % of control
- T/C [2]: 98 % of control
- T/C [3]: 108 % of control

Compound: CN(C)Sc1ccc(Cl)cc1[N+](=O)[O-]
- T/C [10]: 109 % of control
- T/C [11]: 100 % of control
- T/C [2]: 97 % of control
- T/C [12]: 106 % of control
- T/C [3]: 97 % of control

Compound: Nc1ccc2ccccc2c1[N+](=O)[O-]
- T/C [13]: 105 % of control
- T/C [14]: 102 % of control
- T/C [15]: 113 % of control

Compound: c1cc(NNc2cccc(-c3nn[nH]n3)c2)cc(-c2nn[nH]n2)c1
- T/C [13]: 95 % of control
- T/C [14]: 117 % of control
- T/C [15]: 113 % of control

Compound: CCN(CC)C1=Nc2ccccc2N(c2ccccc2)C(=S)C1
- T/C (dose: 50.0 mg/kg/injection, schedule: Q01DX005 (ip), vehicle: Klucel (hydroxypropylcellulose) (HPC)): 106 % of control
- T/C (dose: 100.0 mg/kg/injection, schedule: Q01DX005 (ip), vehicle: Klucel (hydroxypropylcellulose) (HPC)): 103 % of control
- T/C (dose: 200.0 mg/kg/injection, schedule: Q01DX005 (ip), vehicle: Klucel (hydroxypropylcellulose) (HPC)): 100 % of control

Compound: COc1cc2cnc(-c3ccccc3)cc2cc1OC
- T/C (dose: 100.0 mg/kg/injection, schedule: Q04DX003 (ip), vehicle: suspension in saline): 101 % of control
- T/C (dose: 200.0 mg/kg/injection, schedule: Q04DX003 (ip), vehicle: suspension in saline): 93 % of control
- T/C (dose: 400.0 mg/kg/injection, schedule: Q04DX003 (ip), vehicle: suspension in saline): 93 % of control

Compound: CCOc1c2c(nn(C)c1=O)Oc1ccccc1N2CCCN1CCOCC1
- T/C [16]: 96 % of control
- T/C [17]: 90 % of control
- T/C [7]: 104 % of control and 91 % of control

Compound: CCS(=O)(=O)[O][Sn]([CH2]C)([CH2]C)[O]S(=O)(=O)CC
- T/C (dose: 1.56 mg/kg/injection, schedule: Q04DX003 (ip), vehicle: saline): 107 % of control
- T/C (dose: 3.12 mg/kg/injection, schedule: Q04DX003 (ip), vehicle: saline): 110 % of control
- T/C (dose: 6.25 mg/kg/injection, schedule: Q04DX003 (ip), vehicle: saline): 116 % of control and 121 % of control

Compound: Cc1cc2cc(O)c3c(=O)c4c(O)cccc4c(=O)c3c2c(=O)c1=O
- T/C (dose: 3.12 mg/kg/injection, schedule: Q01DX005 (ip), vehicle: other): 101 % of control
- T/C (dose: 6.25 mg/kg/injection, schedule: Q01DX005 (ip), vehicle: other): 107 % of control
- T/C (dose: 12.5 mg/kg/injection, schedule: Q01DX005 (ip), vehicle: other): 100 % of control
- T/C (dose: 25.0 mg/kg/injection, schedule: Q01DX005 (ip), vehicle: other): 104 % of control

Compound: CCOC(=O)/C=C/CI
- T/C [18]: 105 % of control and 98 % of control
- T/C [19]: 114 % of control and 120 % of control and 97 % of control
- T/C [20]: 117 % of control and 97 % of control

Compound: CN(C)CCCC1(O)c2ccccc2Sc2cc(Cl)ccc21 (centres undefined)
- T/C [7]: 100 % of control
- T/C [8]: 96 % of control

Compound: COc1ccc([N+](=O)[O-])cc1NC(=O)c1ccc2c(c1)C(=O)OC2=O
- T/C (dose: 7.5 mg/kg/injection, schedule: Q01DX005 (ip), vehicle: saline with Tween-80): 97 % of control
- T/C [16]: 87 % of control
- T/C [17]: 90 % of control and 94 % of control
- T/C [7]: 89 % of control
- T/C [9]: 93 % of control

Compound: N#Cc1ccc(N2C(=O)c3ccc(C(O)(C(F)(F)F)C(F)(F)F)cc3C2=O)cc1C#N
- T/C [13]: 103 % of control
- T/C [14]: 103 % of control
- T/C [15]: 99 % of control

Compound: CC(NC(=O)C(CO)NC(=O)CN)C(=O)O (centres undefined)
- T/C (dose: 50.0 mg/kg/injection, schedule: Q01DX005 (ip), vehicle: saline): 101 % of control
- T/C (dose: 100.0 mg/kg/injection, schedule: Q01DX005 (ip), vehicle: saline): 99 % of control
- T/C (dose: 200.0 mg/kg/injection, schedule: Q01DX005 (ip), vehicle: saline): 105 % of control

Compound: COC1OC(COC(=O)c2ccccc2)C=C(OC(=O)c2ccccc2)C1=O (centres undefined)
- T/C (dose: 6.25 mg/kg/injection, schedule: Q01DX009 (ip), vehicle: saline with Tween-80): 103 % of control
- T/C (dose: 12.5 mg/kg/injection, schedule: Q01DX009 (ip), vehicle: saline with Tween-80): 105 % of control
- T/C (dose: 25.0 mg/kg/injection, schedule: Q01DX009 (ip), vehicle: saline with Tween-80): 103 % of control
- T/C [10]: 102 % of control and 113 % of control and 114 % of control
- T/C [11]: 105 % of control and 92 % of control
- T/C [12]: 114 % of control and 96 % of control

Compound: O=C(c1ccc([N+](=O)[O-])cc1)N1CCCSC1=S
- T/C [7]: 107 % of control
- T/C [8]: 98 % of control
- T/C [9]: 101 % of control

Compound: COc1ccc2c(c1)CCC1C2=CCP1(C)=O (centres undefined)
- T/C [21]: 97 % of control
- T/C [1]: 101 % of control
- T/C [2]: 93 % of control
- T/C [3]: 91 % of control

Compound: CCCCCCCCN(CCCCCCCC)/N=C/c1c2c(O)c3c(O)c(C)c4c(c3c1O)C(=O)C(C)(O/C=C/C(OC)C(C)C(OC(C)=O)C(C)C(O)C(C)C(O)C(C)/C=C/C=C(C)C(=O)N2)O4 (centres undefined)
- T/C [4]: 95 % of control
- T/C [5]: 89 % of control
- T/C [6]: 92 % of control

Compound: [Fe]=[Se]
- T/C [7]: 96 % of control
- T/C [8]: 86 % of control
- T/C [9]: 107 % of control

Compound: O=C1c2ccccc2C(=O)N1C1CC(=O)n2c1nc1ccccc12 (centres undefined)
- T/C [7]: 101 % of control
- T/C [8]: 95 % of control
- T/C [9]: 95 % of control

Compound: Cc1ccc(NC(=O)Oc2ccc(Cl)c(C)c2)c([N+](=O)[O-])c1
- T/C [11]: 87 % of control
- T/C [12]: 88 % of control

Compound: Cn1ccc(=Nc2ccc(NC(=O)c3ccc(N=c4ccn(C)c5ccc([N+](=O)[O-])cc45)cc3)cc2)cc1
- T/C (dose: 3.13 mg/kg/injection, schedule: Q01DX009 (ip), vehicle: other): 160 % of control
- T/C (dose: 6.25 mg/kg/injection, schedule: Q01DX009 (ip), vehicle: other): 188 % of control
- T/C (dose: 12.5 mg/kg/injection, schedule: Q01DX009 (ip), vehicle: other): 182 % of control
- T/C [18]: 179 % of control and 220 % of control
- T/C [19]: 168 % of control
- T/C [20]: 97 % of control

Compound: Cc1noc(N)c1C
- T/C [21]: 98 % of control
- T/C [1]: 98 % of control
- T/C [2]: 98 % of control
- T/C [3]: 95 % of control
